Data published in PMC3832545 (PLoS ONE, 2013).
Marks after values point to notes of the source that are not given here.

Tests used:
[1] = test system: MC38 cell allografts; test: Growth of MC38 cell tumor allografts in mice with diet-induced obesity; type: in vivo, mouse; conditions: 600 nmol/kg sc twice daily; for Tumor end volume, mean / Tumor end volume, fold change relative to vehicle: day 14; for AUC tumor growth, mean / AUC tumor growth, fold change relative to vehicle: day 0 to 14
Description: We focused on different endpoints in these animal experiments and monitored tumor growth in all experiments, see Table 1. The animal experiments were performed as described recently. […] Animal care and treatments were conducted in accordance with established guidelines and protocols approved by the Lady Davis Institute (protocol # 5951) and McGill University's Animal Ethics Committee. Mice were housed one mouse per cage with ad libitum access to tap water and high- or low fat diet, respectively, throughout the studies. The temperature in the animal rooms was maintained at 20-25°C with a light/dark cycle of 14/10 hours. Mice were acclimatized for 7-10 days before experimental procedures were initiated. At experimental day 0, 2.0×10^5 (experiment A) or 5.0×10^5 (all other experiments) MC38 cells, suspended in 100 μl phosphate-buffered saline (PBS), were injected subcutaneously (sc) in the right flank of the mice. […] The size of the tumor allografts was measured three times per week and the volume calculated using the following formula: length × width^2 × 0.52. Based on the tumor volume data for each mouse, we calculated the area under the tumor growth curves (tumor growth AUC). At termination of the experiments, mice were anesthetized with isoflurane. Blood was collected by cardiac puncture and immediately after euthanasia by cervical dislocation, samples of the liver, colon, gastrocnemius muscle and the MC38 cell tumor allografts were dissected out and snap-frozen in liquid nitrogen for later preparation of tissue lysate. The effect of treatment on tumor growth in each of the five animal experiments were analysed in a one-way ANOVA followed by pairwise comparison of each treatment with vehicle using multiple t-tests with Dunnetts correction for each of the two tumor growth endpoints; tumor end volume and area under the tumor growth curves (tumor growth AUC). The results of this analysis for each experiment, i.e., mean values for each treatment, 95% confidence intervals and the fold change of each treatment relative to vehicle, are shown in Table 3. To examine treatment-related effects on tumor growth across all five animal experiments, we for each endpoint (tumor end volume and tumor growth AUC) pooled all data in one dataset and analysed them in a mixed linear model with treatment as a fixed explanatory variable and experiment as a random effect. No significant interaction between treatment and experiment was found for the any of the two outcomes (tumor end volume and tumor growth AUC). To further explore the differences between treatments, pairwise comparisons of each type of treatment were done using multiple t-test with Bonferonni correction. No outliers were observed among the 131 observations of tumor end volume, whereas one outlier was identified among the 131 observations of tumor growth AUC.

[2] = Blood glucose (pharmacodynamics) after sc injection in DIO-mice; type: in vivo, mouse; conditions: 600 nmol/kg sc, n = 8
Description: Blood was collected by puncture of the saphenous vein and blood glucose measured using a OneTouch Ultra Glucometer (LifeScan, Inc., Milpitas, CA, USA).

[3] = test system: MC38 cells; test: MTT cell proliferation assay, MC38 cells; type: cell-based, mouse; conditions: 24 h, 0.25% (v/v) serum, 0.001 to 1000 nM, three independent experiments with four replicates
Description: Effect of test compounds on proliferation was assessed with 3-(4,5-dimethylthiazol-2-yl)-2,5-diphenyl tetrazolium bromide (MTT) assays, essentially as described previously. In brief, MC38 cells were plated in 96-well plates (5,000 cells per well) in growth medium. […] Data for relative cell numbers from the three repeated experiments, each with four replicate samples per condition, were then used to fit dose-response curves using GraphPad Prism version 6.0 (GraphPad Software Inc., La Jolla, CA, USA). Cell proliferation experiments were done with MCF-7 cells as described for MC38 cells, except that 20,000 cells were plated per well. See Materials S1 and Figure S1 for detailed supplementary information regarding cell proliferation experiments.
In initial tests the association between number of cells and absorbance at 570 nm measured in an MTT assay was examined after incubation of MC38 cells with MTT for 3 h, 3 h after plating different number of cells per well, i.e., the total incubation period was 6 h. As expected there was a highly linear relationship between absolute number of cells and the measured absorbance (Figure S1). […] After incubation for 1 day cells were rinsed in PBS (room temperature) and then starvation medium was added. […] Control samples were treated with starvation medium only. After treatment for 21 h, 10 µl stock solution of MTT dissolved in PBS (5.0 mg/ml) was added to each well, and incubation was continued for 3 h so treatment with test compounds in total lasted 24 h. At the end of the treatment period medium with test compounds was removed and formazan crystals were suspended by adding 100 µl 0.04 M HCl dissolved in isopropanol to each well and absorbance was thereafter read at 570 nm using a Emax PC plate reader (Molecular Devices LLC, Sunnyvale, CA, USA). Each treatment was done with four replicate samples and three independent experiments were performed. In each experiment the absorbance was normalized to the mean absorbance in the untreated control samples. […]

[4] = all experiments (A–E) pooled, mixed linear model, DIO-mice
[5] = all experiments (A–E) pooled, mixed linear model, one outlier excluded, DIO-mice
[6] = experiment C, n = 6, 5.0×10^5 MC38 cells sc, DIO-mice
[7] = experiment D, n = 8–10, 5.0×10^5 MC38 cells sc, DIO-mice
[8] = experiment A, n = 6, 2.0×10^5 MC38 cells sc, DIO-mice
[9] = experiment A, n = 6, 2.0×10^5 MC38 cells sc, male C57BL/6 DIO-mice
[10] = experiment B, n = 6, 5.0×10^5 MC38 cells sc, DIO-mice
[11] = experiment E, n = 10, 5.0×10^5 MC38 cells sc, DIO-mice

Row | Substance | Tumor end volume, mean [1, 4] | AUC tumor growth, mean [1, 5] | AUC tumor growth, mean [1, 6] | Tumor end volume, mean [1, 6] | AUC tumor growth, mean [1, 7] | Tumor end volume, mean [1, 7] | Effect on blood glucose [2] | Time until blood glucose returned to basal levels [2] | Ranking according to mitogenic potency (MTT assay) [3] | AUC tumor growth, mean [1, 8] | Tumor end volume, mean [1, 9] | AUC tumor growth, mean [1, 10] | Tumor end volume, mean [1, 10] | AUC tumor growth, mean [1, 11] | Tumor end volume, mean [1, 11] | also measured
1 | IGF-1: recombinant human IGF-1 (Increlex, IPSEN Pharma GmbH) | 686.3 mm^3 | 2499.8 day × mm^3 | 2596.8 day × mm^3 | 724.6 mm^3 | 2207.1 day × mm^3 | 616.0 mm^3 | rapidly lowered blood glucose | 3 to 4 h | X10≥IGF-1>HI | – | – | – | – | – | – | –
2 | human insulin [HI] | 409.5 mm^3 | 1542.1 day × mm^3 | 1309.5 day × mm^3 | 374.5 mm^3 | 1483.0 day × mm^3 | 397.7 mm^3 | rapidly lowered blood glucose | 3 to 4 h | X10≥IGF-1>HI | 1539.6 day × mm^3 | 439.3 mm^3 | 1725.4 day × mm^3 | 434.3 mm^3 | 1421.9 day × mm^3 | 365.6 mm^3 | –
3 | insulin analog B10Asp [X10] | 500.5 mm^3 | 1851.9 day × mm^3 | 2060.9 day × mm^3 | 646.8 mm^3 | 1394.4 day × mm^3 | 345.8 mm^3 | rapidly lowered blood glucose | 3 to 4 h | X10≥IGF-1>HI | 1880.9 day × mm^3 | 500.7 mm^3 | 2167.5 day × mm^3 | 558.4 mm^3 | 1836.1 day × mm^3 | 427.0 mm^3 | Tumor end volume, fold change relative to vehicle [1, 4]: 1.5 ^* fold; AUC tumor growth, fold change relative to vehicle [1, 5]: 1.5 ^* fold; AUC tumor growth, fold change relative to vehicle [1, 8]: 0.9 fold; Tumor end volume, fold change relative to vehicle [1, 8]: 1.0 fold; AUC tumor growth, fold change relative to vehicle [1, 10]: 1.8 fold; Tumor end volume, fold change relative to vehicle [1, 10]: 1.7 fold; AUC tumor growth, fold change relative to vehicle [1, 6]: 1.8 ^* fold; Tumor end volume, fold change relative to vehicle [1, 6]: 2.0 ^* fold; AUC tumor growth, fold change relative to vehicle [1, 7]: 1.6 fold; Tumor end volume, fold change relative to vehicle [1, 7]: 1.9 fold; AUC tumor growth, fold change relative to vehicle [1, 11]: 1.4 fold; Tumor end volume, fold change relative to vehicle [1, 11]: 1.3 fold
